Assay results reported in article PMC6600574 (Molecules, 2019).
Where two headings read alike, the source gives them in different places.

What was measured:
[1] = tested on: peripheral blood mononuclear cells (PBMC); assay: Cellular antiproliferative activity (PrestoBlue); format: cell-based, human; conditions: 48 h, read-out: Peripheral Blood Mononuclear Cell (PBMC) IC50
Method: (2012) was performed. PBMC isolation and testing was approved by the Ethics Committee of the Department of Natural and Agricultural Sciences, University of Pretoria, Pretoria (Doc nr: EC120411-046; 17.05.2012). Briefly, peripheral blood mononuclear cells were isolated from blood that was freshly donated on the same day at the Student Clinic at the University of Pretoria. Mononuclear cells were isolated by centrifugation over Ficoll-Hypaque, a density gradient solution, with a density gradient of 1.07 g/mL. A layer of fresh heparinized venous blood was layered on the Ficoll-Hypaque at a ratio of 1:1 with supplemented RPMI 1640 media and then subjected to centrifugation at 3000 rpm for 30 min. Through centrifugation, the whole blood sample was separated into its different layers. […] The cells were counted and seeded in 96-well plates with a cell density of 10,000 cells/mL. The following formula was used to adjust the cell concentrations (Equation 1): (1) Concentration of the cells=Cells counted/number of blocks counted×10000.
The HepG2 cell line was seeded with a concentration of 1 × 10^5 cells/well. […] The absorbance was read at 490 nm with a reference wavelength of 690 nm using a BIO-TEK Power-Wave XS multiwell plate reader. The assay was performed in triplicate, and the mean IC50 values were calculated.

[2] = target: T1, CYP 19A1 (aromatase) (Homo sapiens, UniProt P11511); assay: Aromatase inhibition assay, tritiated water release, placental microsomes; format: in vitro ADME; conditions: CYP 19A1, substrate androstendione, verbascoside 4-500 µM
T1 construct: from tissue; host or cells: human placental microsomes
T1 sequence (P11511 1-503): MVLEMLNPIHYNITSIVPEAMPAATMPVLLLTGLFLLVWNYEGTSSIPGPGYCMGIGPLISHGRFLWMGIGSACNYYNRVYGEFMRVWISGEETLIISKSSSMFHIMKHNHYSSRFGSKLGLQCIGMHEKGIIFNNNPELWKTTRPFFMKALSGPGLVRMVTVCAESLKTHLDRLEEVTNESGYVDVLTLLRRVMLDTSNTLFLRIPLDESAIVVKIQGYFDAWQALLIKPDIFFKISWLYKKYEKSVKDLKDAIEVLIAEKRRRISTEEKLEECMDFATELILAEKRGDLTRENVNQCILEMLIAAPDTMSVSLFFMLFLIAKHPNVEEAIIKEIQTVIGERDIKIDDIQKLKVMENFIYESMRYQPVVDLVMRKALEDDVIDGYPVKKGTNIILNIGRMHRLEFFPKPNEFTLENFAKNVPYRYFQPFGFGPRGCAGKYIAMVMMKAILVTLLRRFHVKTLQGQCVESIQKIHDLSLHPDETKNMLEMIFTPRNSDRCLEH
Method: The relative remaining aromatase activity was calculated by measuring the tritiated water (^3H2O) formed from the aromatization of ^3H-Androst-4-ene,3,17-dione. […] Twenty percent NADPH regenerative system was added to initiate the reaction. Reactions were terminated by the addition of 33% trichloroacetic acid. The supernatant was investigated for tritiated water formed in a scintillation mixture (Optiphase Hisafe 2, Perkin Elmer) using a Wallac microbeta 1450 TriLux liquid scintillation and luminescence counter (PerkinElmer).

[3] = tested on: recombinant human UGT1A7, 1A10, and UGT1A8; assay: Glucuronidation by recombinant human UGTs; format: in vitro ADME; conditions: incubation with recombinant human UGT1A7, 1A10 and UGT1A8

Microsomal IC50 (µM) with 95% Confidence Intervals [2]: No inhibition
Microsomal IC50 (µM) with 95% Confidence Intervals ([2]; listed as verbascoside): did not inhibit
Metabolites formed [3]: low levels of glucuronide metabolites
SMILES: C[C@@H]1O[C@@H](O[C@@H]2[C@@H](O)[C@H](OCCc3ccc(O)c(O)c3)O[C@H](CO)[C@H]2OC(=O)/C=C/c2ccc(O)c(O)c2)[C@H](O)[C@H](O)[C@H]1O [Verbascoside]
IC50 [1]: 170 ± 3.73 µM
IC50 ([1]; Homo sapiens, PBMC): > 100 µM
